Assay results published in patent US20110178104A1, “Anti-Heparin Compounds” (POLYMEDIX INC., priority 2010, published 2011).
Starred links: 1 amine or outer side, 2 acyl side, 3 side chain; linkers in the order of their positions; H or OH if unused. Non-standard residues stand in square brackets, D forms with d. Residues, ends and D or L forms follow the SMILES beside them. *: point of attachment. NH(3-CONH2-4-OMe-phenyl) = COc1ccc(N*)cc1C(N)=O; 3Abz(6-OMe) = COc1ccc(N[*:1])cc1C(=O)[*:2]

Columns and labels:
[1] = test system: unfractionated heparin (UFH); assay: aPTT clotting assay, UFH 0.2 U/mL in plasma (Example 7); format: biochemical; settings: UFH 0.2 U/mL in plasma
Protocol: aPTT clotting Assay. Unfractionated heparin was mixed with plasma at a final concentration of 0.2 U/mL. […] The ACL Elite Hemostasis analyzer (Beckman Coulter™) was used to add aPTT reagent (HemosIL SynthASil) to supplemented plasma. Clotting was initiated by addition of CaCl2 and time to clot was recorded.

enoxaparin (ENOX) = assay: FXa chromogenic assay (absence of plasma), enoxaparin; settings: enoxaparin 0.1 μg/mL, absence of plasma
Protocol: (§1) Human antithrombin was mixed with an anticoagulant agent (a LMWH or fondaparinux); final concentrations were 0.22 μg/mL for the LMWHs and 0.07 μg/mL for fondaparinux. […] Absorbance was read every 30 seconds over a 4 minute period in a SpectraMax 250 instrument (Molecular Devices, Inc.). EC50 values are determined by a curve-fit program (SoftMax Pro) using the following formula:
(§2) FXa Chromogenic Assay (absence of plasma). Human antithrombin was mixed with an anticoagulant (a LMWH or fondaparinux); final concentrations were 0.1 μg/mL for the LMWHs and 0.02 μg/mL for fondaparinux. […] Absorbance was read every 30 seconds over a 4 minute period in a SpectraMax 250 instrument (Molecular Devices Inc.™) The slope of absorbance vs time was calculated for each compound concentration. EC50 values were determined using a curve fit program (GraphPad Prism 5).

fondaparinux (FONDAPX) = assay: FXa chromogenic assay (absence of plasma), fondaparinux; settings: fondaparinux 0.02 μg/mL, absence of plasma
Protocol: as §1, §2

COc1ccc(NC(=O)[C@H](CCCCN)NC(=O)c2cc(NC(=O)[C@H](CCCCN)NC(=O)c3cc(NC(=O)[C@H](CCCCN)NC(=O)c4cccc(N(C)C(=O)[C@@H](N)CCCCN)c4)ccc3OC)ccc2OC)cc1C(N)=O [Compound 127]
UFH (aPTT) EC50 [1]: 2.33 µg/mL | ENOX (FXa) EC50 (enoxaparin (ENOX)): >15 µg/mL | FONDAPX (FXa) EC50 (fondaparinux (FONDAPX)): inactive

COc1ccc(NC(=O)[C@H](CCCCN)NC(=O)c2cc(NC(=O)[C@H](CCCCN)NC(=O)c3cc(NC(=O)[C@H](CCCCN)NC(=O)c4ccc(NC(=O)[C@@H](N)CCCCN)cc4OC)ccc3OC)ccc2OC)cc1C(N)=O [Compound 129]
UFH (aPTT) EC50 [1]: 2.47 µg/mL | ENOX (FXa) EC50 (enoxaparin (ENOX)): 0.3888 µg/mL | FONDAPX (FXa) EC50 (fondaparinux (FONDAPX)): 7.996 µg/mL

COc1ccc(NC(=O)[C@H](CCCCN)NC(=O)c2cc(NC(=O)[C@H](CCCCN)NC(=O)c3cc(NC(=O)[C@H](CCCCN)NC(=O)c4cc(NC(=O)[C@@H](N)CCCCN)ccc4OC)ccc3OC)ccc2OC)cc1C(=O)NCCC(=O)O [Compound 108]
UFH (aPTT) EC50 [1]: 1.50 µg/mL | ENOX (FXa) EC50 (enoxaparin (ENOX)): 0.6085 µg/mL | FONDAPX (FXa) EC50 (fondaparinux (FONDAPX)): 10.57 µg/mL

COc1ccc(NC(=O)[C@@H](CCCNC(=N)N)NC(=O)c2cc(NC(=O)[C@@H](CCCNC(=N)N)NC(=O)c3cc(NC(=O)[C@H](CCCNC(N)=O)NC(=O)c4cc(NC(=O)[C@H](N)CCCNC(=N)N)ccc4OC)ccc3OC)ccc2OC)cc1C(N)=O [Compound 83]
UFH (aPTT) EC50 [1]: 4.73 µg/mL | ENOX (FXa) EC50 (enoxaparin (ENOX)): 1.02 µg/mL | FONDAPX (FXa) EC50 (fondaparinux (FONDAPX)): 14.79 µg/mL

COc1ccc(NC(=O)[C@@H](CCCNC(=N)N)NC(=O)c2cc(NC(=O)[C@@H](CCCNC(=N)N)NC(=O)c3cc(NC(=O)[C@@H](CCCNC(=N)N)NC(=O)c4cc(NC(=O)[C@H](N)CO)ccc4OC)ccc3OC)ccc2OC)cc1C(N)=O [Compound 70]
UFH (aPTT) EC50 [1]: 1.55 µg/mL | ENOX (FXa) EC50 (enoxaparin (ENOX)): 0.33 µg/mL | FONDAPX (FXa) EC50 (fondaparinux (FONDAPX)): 1.59 µg/mL

COc1ccc(NC(=O)[C@@H](CCCNC(=N)N)NC(=O)c2cc(NC(=O)[C@@H](CCCNC(=N)N)NC(=O)c3cc(NC(=O)[C@@H](CCCNC(=N)N)NC(=O)c4cc(NC(C)=O)ccc4OC)ccc3OC)ccc2OC)cc1C(=O)NCCN [Compound 52]
UFH (aPTT) EC50 [1]: 2.13 µg/mL | ENOX (FXa) EC50 (enoxaparin (ENOX)): 0.35 µg/mL | FONDAPX (FXa) EC50 (fondaparinux (FONDAPX)): 1.90 µg/mL

COc1ccc(NC(=O)[C@H](CCCCN)NC(=O)c2cc(NC(=O)[C@H](CCCCN)NC(=O)c3cc(NC(=O)[C@H](CCCCN)NC(=O)c4cc(NC(=O)[C@@H](N)CCCCN)ccc4OC)ccc3OC)ccc2OC)cc1C(=O)O [Compound 96]
UFH (aPTT) EC50 [1]: 3.59 µg/mL | ENOX (FXa) EC50 (enoxaparin (ENOX)): 5.567 µg/mL | FONDAPX (FXa) EC50 (fondaparinux (FONDAPX)): inactive

COc1ccc(NC(=O)[C@H](CCCNC(=N)N)NC(=O)c2cc(NC(=O)[C@H](CCCNC(=N)N)NC(=O)c3cc(NC(=O)[C@H](CCCNC(=N)N)NC(=O)c4cc(NC(=O)[C@H](C)NC(=O)CCCCNC(=N)N)ccc4OC)ccc3OC)ccc2OC)cc1C(N)=O [Compound 92]
UFH (aPTT) EC50 [1]: 7.17 µg/mL | ENOX (FXa) EC50 (enoxaparin (ENOX)): 0.55 µg/mL | FONDAPX (FXa) EC50 (fondaparinux (FONDAPX)): 1.40 µg/mL

COc1ccc(NC(=O)[C@@H](CCCNC(=N)N)NC(=O)c2cc(NC(=O)[C@@H](CCCNC(=N)N)NC(=O)c3cc(NC(=O)[C@@H](CCCNC(=N)N)NC(=O)c4cc(NC(=O)[C@H](N)CCCNC(=N)N)ccc4OC)ccc3OC)ccc2OC)cc1C(N)=O [Compound 136]
UFH (aPTT) EC50 [1]: 2.91 µg/mL | ENOX (FXa) EC50 (enoxaparin (ENOX)): 0.194 µg/mL | FONDAPX (FXa) EC50 (fondaparinux (FONDAPX)): 0.8018 µg/mL

CSc1ccc(NC(=O)[C@H](CCCNC(=N)N)NC(=O)c2cc(NC(=O)[C@H](CCCNC(=N)N)NC(=O)c3cc(NC(=O)[C@H](CCCNC(=N)N)NC(=O)c4cc(NC(=O)[C@@H](N)CCCNC(=N)N)ccc4SC)ccc3SC)ccc2SC)cc1C(N)=O [Compound 97]
UFH (aPTT) EC50 [1]: >10 µg/mL | ENOX (FXa) EC50 (enoxaparin (ENOX)): 0.9842 µg/mL | FONDAPX (FXa) EC50 (fondaparinux (FONDAPX)): >20 µg/mL

CN(C)CCNC(=O)c1cc(C(=O)NCCN(C)C)c(OCCCCCN)cc1OCCCCCN [Compound 4]
UFH (aPTT) EC50 [1]: inactive | ENOX (FXa) EC50 (enoxaparin (ENOX)): 47.94 µg/mL | FONDAPX (FXa) EC50 (fondaparinux (FONDAPX)): 84.66 µg/mL

COc1ccc(NC(=O)[C@@H](CCCNC(=N)N)NC(=O)c2cc(NC(=O)[C@@H](CCCNC(=N)N)NC(=O)c3cc(NC(=O)[C@H](C)NC(=O)[C@@H](CCCNC(=N)N)NC(=O)c4cc(NC(=O)[C@H](N)CCCNC(=N)N)ccc4OC)ccc3OC)ccc2OC)cc1C(N)=O [Compound 73] (H-[dR][3Abz(6-OMe)][dR]A[3Abz(6-OMe)][dR][3Abz(6-OMe)][dR]-{NH(3-CONH2-4-OMe-phenyl)})
UFH (aPTT) EC50 [1]: 5.16 µg/mL | ENOX (FXa) EC50 (enoxaparin (ENOX)): 2.49 µg/mL | FONDAPX (FXa) EC50 (fondaparinux (FONDAPX)): 17.92 µg/mL

COc1ccc(NC(=O)[C@@H](CCCNC(=N)N)NC(=O)c2cc(NC(=O)[C@@H](CCCNC(=N)N)NC(=O)c3cc(NC(=O)[C@@H](CCCNC(=N)N)NC(=O)c4cc(NC(=O)[C@@H](CCCNC(=N)N)NC(=O)CCCCNC(=N)N)ccc4OC)ccc3OC)ccc2OC)cc1C(N)=O [Compound 38]
UFH (aPTT) EC50 [1]: 2.37 µg/mL | ENOX (FXa) EC50 (enoxaparin (ENOX)): 0.18 µg/mL | FONDAPX (FXa) EC50 (fondaparinux (FONDAPX)): 1.94 µg/mL

COc1ccc(NC(=O)[C@@H](CCCNC(=N)N)NC(=O)c2cc(NC(=O)[C@H](C)NC(=O)[C@@H](CCCNC(=N)N)NC(=O)c3cc(NC(=O)[C@@H](CCCNC(=N)N)NC(=O)c4cc(NC(=O)[C@H](N)CCCNC(=N)N)ccc4OC)ccc3OC)ccc2OC)cc1C(N)=O [Compound 75] (H-[dR][3Abz(6-OMe)][dR][3Abz(6-OMe)][dR]A[3Abz(6-OMe)][dR]-{NH(3-CONH2-4-OMe-phenyl)})
UFH (aPTT) EC50 [1]: 4.80 µg/mL | ENOX (FXa) EC50 (enoxaparin (ENOX)): 3.71 µg/mL | FONDAPX (FXa) EC50 (fondaparinux (FONDAPX)): 44.99 µg/mL

COc1cc(OC)c(C(=O)N[C@H]2CC[C@H](NC(=O)c3cc(C(=O)NCCN(C)C)c(OCCCCCNC(=N)N)cc3OCCCCCNC(=N)N)CC2)cc1C(=O)N[C@H]1CC[C@@H](NC(=O)c2cc(C(=O)NCCN(C)C)c(OCCCCCNC(=N)N)cc2OCCCCCNC(=N)N)CC1 [Compound 104]
UFH (aPTT) EC50 [1]: >10 µg/mL | ENOX (FXa) EC50 (enoxaparin (ENOX)): 0.36 µg/mL | FONDAPX (FXa) EC50 (fondaparinux (FONDAPX)): 2.02 µg/mL

COc1ccc(NC(=O)[C@H](CCCCN)NC(=O)c2cc(NC(=O)[C@H](CCCCN)NC(=O)c3cc(NC(=O)[C@H](CCCCN)NC(=O)c4cc(NC(=O)[C@@H](N)CCCNC(N)=O)ccc4OC)ccc3OC)ccc2OC)cc1C(N)=O [Compound 137]
UFH (aPTT) EC50 [1]: 2.00 µg/mL | ENOX (FXa) EC50 (enoxaparin (ENOX)): 0.3761 µg/mL | FONDAPX (FXa) EC50 (fondaparinux (FONDAPX)): 4.025 µg/mL

COc1ccc(NC(=O)[C@H](C)NC(=O)c2cc(NC(=O)[C@H](CCCCN)NC(=O)c3cc(NC(=O)[C@H](CCCCN)NC(=O)c4cc(NC(=O)[C@@H](N)CCCCN)ccc4OC)ccc3OC)ccc2OC)cc1C(N)=O [Compound 94]
UFH (aPTT) EC50 [1]: 4.94 µg/mL | ENOX (FXa) EC50 (enoxaparin (ENOX)): 1.32 µg/mL | FONDAPX (FXa) EC50 (fondaparinux (FONDAPX)): >20 µg/mL

COc1ccc(NC(=O)[C@H](CCCCN)NC(=O)c2cc(NC(=O)[C@H](CCCCN)NC(=O)c3cc(NC(=O)[C@H](CCCCN)NC(=O)c4cc(NC(=O)[C@@H](N)CCCNC(=N)N)ccc4OC)ccc3OC)ccc2OC)cc1C(N)=O [Compound 81]
UFH (aPTT) EC50 [1]: 1.97 µg/mL | ENOX (FXa) EC50 (enoxaparin (ENOX)): 0.26 µg/mL | FONDAPX (FXa) EC50 (fondaparinux (FONDAPX)): 3.23 µg/mL

COc1ccc(NC(=O)[C@@H](CCCNC(=N)N)NC(=O)c2cccc(NC(=O)[C@@H](CCCNC(=N)N)NC(=O)c3cc(NC(=O)[C@@H](CCCNC(=N)N)NC(=O)c4cc(NC(=O)[C@H](N)CCCNC(=N)N)ccc4OC)ccc3OC)c2)cc1C(N)=O [Compound 68]
UFH (aPTT) EC50 [1]: 1.99 µg/mL | ENOX (FXa) EC50 (enoxaparin (ENOX)): 0.29 µg/mL | FONDAPX (FXa) EC50 (fondaparinux (FONDAPX)): 4.26 µg/mL

COc1ccc(NC(=O)[C@H](CCCNC(=N)N)NC(=O)c2cc(NC(=O)[C@H](CCCCN)NC(=O)c3cc(NC(=O)[C@H](CCCCN)NC(=O)c4cc(NC(=O)[C@@H](N)CCCCN)ccc4OC)ccc3OC)ccc2OC)cc1C(N)=O [Compound 78]
UFH (aPTT) EC50 [1]: 2.99 µg/mL | ENOX (FXa) EC50 (enoxaparin (ENOX)): 0.49 µg/mL | FONDAPX (FXa) EC50 (fondaparinux (FONDAPX)): 6.28 µg/mL

N=C(N)NCCC[C@@H](N)C(=O)Nc1ccc(OCCNC(=N)N)c(C(=O)N[C@H](CCCNC(=N)N)C(=O)Nc2ccc(OCCNC(=N)N)c(C(=O)N[C@H](CCCNC(=N)N)C(=O)Nc3ccc(OCCNC(=N)N)c(C(N)=O)c3)c2)c1 [Compound 9]
UFH (aPTT) EC50 [1]: 5.35 µg/mL | ENOX (FXa) EC50 (enoxaparin (ENOX)): 2.90 µg/mL | FONDAPX (FXa) EC50 (fondaparinux (FONDAPX)): 40.16 µg/mL

COc1ccc(NC(=O)[C@H](CCCCN)NC(=O)c2cc(NC(=O)[C@H](CCCCN)NC(=O)c3cc(NC(=O)[C@H](CCCCN)NC(=O)c4cccc(NC(=O)[C@@H](N)CCCCN)c4)ccc3OC)ccc2OC)cc1C(N)=O [Compound 91]
UFH (aPTT) EC50 [1]: 2.03 µg/mL | ENOX (FXa) EC50 (enoxaparin (ENOX)): 0.58 µg/mL | FONDAPX (FXa) EC50 (fondaparinux (FONDAPX)): 13.11 µg/mL

COc1ccc(NC(=O)[C@@H](CCCNC(=N)N)NC(=O)c2cc(NC(=O)[C@@H](CCCNC(=N)N)NC(=O)c3cc(NC(=O)[C@H](N)CCCNC(=N)N)ccc3OC)ccc2OC)cc1C(=O)N[C@H](CCCNC(=N)N)C(N)=O [Compound 42]
UFH (aPTT) EC50 [1]: 2.34 µg/mL | ENOX (FXa) EC50 (enoxaparin (ENOX)): 4.07 µg/mL | FONDAPX (FXa) EC50 (fondaparinux (FONDAPX)): 70.66 µg/mL
